From PubChem BioAssay AID1259408 (Genetic Toxicology Data Bank (GENE-TOX), 2018) come the findings set out here.

The test system of this series is GENE-TOX genotoxicity assays, various organisms and cells. Briefly: GENE-TOX mutagenicity studies. The settings on record: for call: Assay Type: In vivo carcinogenicity studies. The source says: GENE-TOX provides genetic toxicology (mutagenicity) test data from expert peer review of open scientific literature for more than 3,000 chemicals from the United States Environmental Protection Agency (EPA). GENE-TOX was established to select assay systems for evaluation, review data in the scientific literature, and recommend proper testing protocols and evaluation procedures for these systems.
GENE-TOX covers the years 1991 - 1998. It is no longer updated.
This is an archive assay for GENE-TOX mutagenicity studies.

[1] abbreviates: Species/Cell Type: Saccharomyces cerevisiae, Assay Type: Mitotic recombination or gene conversion, Assay Code: YEC+, Evaluation Type: Evaluation A (Pre-1980).
Where [2] appears, read: Species/Cell Type: Salmonella typhimurium (one or more of the five standard strains: TA98, TA100, TA1535, TA1537, and TA1538), Assay Type: Histidine reverse gene mutation, Ames assay, Assay Code: SAL+, Evaluation Type: Evaluation A (Pre-1980).
Setting [3] is: Species/Cell Type: Mouse, Sex: Male, Assay Type: Sperm morphology, Assay Code: SPI-, Evaluation Type: Evaluation A (Pre-1980).
Where [4] appears, read: Species/Cell Type: Nonhuman, Assay Code: CCG+, Evaluation Type: Evaluation A (Pre-1980).
Setting [5] is: Species/Cell Type: Drosophila melanogaster, Assay Type: Sex-linked recessive lethal gene mutation, Assay Code: SRL+, Evaluation Type: Evaluation A (Pre-1980).
Where [6] appears, read: Species/Cell Type: Salmonella typhimurium (one or more of the five standard strains: TA98, TA100, TA1535, TA1537, and TA1538), Assay Type: Histidine reverse gene mutation, Ames assay, Assay Code: SAL+*, Activation: With metabolic activation, Evaluation Type: Evaluation A (Pre-1980).
[7] abbreviates: Species/Cell Type: Salmonella typhimurium (one or more of the five standard strains: TA98, TA100, TA1535, TA1537, and TA1538), Assay Type: Histidine reverse gene mutation, Ames assay, Assay Code: SALT, Evaluation Type: Evaluation A (Pre-1980).

Calls of active or inactive are those of the source. How the calls were made is not given here.

For the compound `Cc1cc(Cl)ccc1OC(C)C(=O)O` (stereo unspecified), under setting [1], the mutagenic call is “active; positive”. For `NCCBr`, the mutagenic call (Species/Cell Type: Schizosaccharomyces pombe, Assay Type: Reverse gene mutation, Assay Code: YEZ+, Evaluation Type: Evaluation A (Pre-1980)) is “active; positive”. Turning to `O=C1c2ccccc2C(=O)c2c1cc(O)c(CO)c2O`, the mutagenic call under setting [2] is “active; positive”. For `COc1cc(C(=O)CCN2CCCCC2)ccc1O`, where the note is “Species/Cell Type: Salmonella typhimurium, Assay Type: Forward and reverse gene mutation, host-mediated assay, Assay Code: HMA-, Evaluation Type: Evaluation A (Pre-1980)”, the mutagenic call was “inactive; negative”.

With `CC(C)=CC1C(C(=O)OCc2coc(Cc3ccccc3)c2)C1(C)C` (stereo unspecified), the mutagenic call by setting is: (Species/Cell Type: Human diploid fibroblasts, Assay Type: Unscheduled DNA synthesis (UDS) in vitro, DNA effects, Assay Code: UDH-, Evaluation Type: Evaluation A (Pre-1980)) “inactive; negative”; (Species/Cell Type: Saccharomyces cerevisiae, Assay Type: Mitotic recombination or gene conversion, Assay Code: YEH-, Evaluation Type: Evaluation A (Pre-1980)) “inactive; negative”. Regarding `c1ccc2nccnc2c1`, the mutagenic call under setting [3] is “inactive; negative”. Regarding `OC1c2ccccc2C2OC2[C@H]1O` (stereo partly specified), the mutagenic call (Species/Cell Type: Escherichia coli polA (W3119 vs P3478), Assay Type: Rec-assay, DNA effects (bacterial DNA repair), Assay Code: RE1+, Evaluation Type: Evaluation A (Pre-1980)) was “active; positive”. For the compound `COc1cc(Cl)c(OC)cc1Cl`, the mutagenic call reads like this: (Species/Cell Type: Aspergillus nidulans, Assay Type: Aneuploidy, chromosome aberrations, Assay Code: ASN+, Evaluation Type: Evaluation A (Pre-1980)) “active; positive”; (Species/Cell Type: Aspergillus nidulans, Assay Type: Mitotic recombination, Assay Code: ASG+, Evaluation Type: Evaluation A (Pre-1980)) “active; positive”.

`CNC[C@H](O)c1ccc(O)c(O)c1`: the mutagenic call (Species/Cell Type: Mammalian polychromatic erythrocytes, Assay Type: Micronucleus test, chromosome aberrations, Assay Code: MNTT, Evaluation Type: Evaluation A (Pre-1980)) is on record as “no conclusion” and the mutagenic call under setting [3] is “inactive; negative”.

On to `c1ccc2c3c(ccc2c1)-c1cccc2cccc-3c12`, for which the call under setting [4] was “active; positive”. As for `N=NN`, the mutagenic call under setting [5] is “active; positive”.

Regarding `CC(C)C(O)(C(=O)OCC1=CCN2CC[C@H](O)[C@H]12)[C@H](C)O` (stereo partly specified), the mutagenic call under setting [5] is “active; positive”. `C#C[C@]1(O)CC[C@H]2[C@@H]3CCc4cc(O)ccc4[C@H]3CC[C@@]21C`: the mutagenic call by setting is: (Species/Cell Type: Fischer rat embryo (RLV/1706) cells, Assay Type: Cell transformation, viral enhanced, Assay Code: CTR+, Evaluation Type: Evaluation A (Pre-1980)) “active; positive”; (Species/Cell Type: Mouse (BALB/c-3T3) cells, Assay Type: Cell transformation, Assay Code: CTB-, Evaluation Type: Evaluation A (Pre-1980)) “inactive; negative”; (Species/Cell Type: Syrian hamster embryo (SHE) cells, Assay Type: Cell transformation, clonal assay, Assay Code: CTC-, Evaluation Type: Evaluation A (Pre-1980)) “inactive; negative”. Besides, the call under setting [4] was “active; positive”.

Turning to `O=C1CCCc2c1ccc1c2ccc2ccccc21`, the mutagenic call under setting [6] was “active; positive”. As to `COc1ccc2c(c1)CC[C@@H]1[C@@H]2CC[C@]2(C)[C@@H](O)[C@H](O)C[C@@H]12`, for the setting “Species/Cell Type: Rat, Sex: Male, Assay Type: Sperm morphology, Assay Code: SPA+, Evaluation Type: Evaluation A (Pre-1980)”, the mutagenic call is “active; positive”. As for `[Cl][Sb]([Cl])([Cl])([Cl])[Cl]`, the mutagenic call (Species/Cell Type: Bacillus subtilis (H17 vs M45), Assay Type: Rec-assay, spot test, DNA effects (bacterial DNA repair), Assay Code: REW+, Evaluation Type: Evaluation A (Pre-1980)) is “active; positive”. `Nc1cc2c3ccccc3ccc2c2ccccc12`: the mutagenic call under setting [6] was “active; positive”. Take `O=[N+]([O-])c1cccc2ccccc12`: the call (Species/Cell Type: Nonhuman, Assay Code: CCG-, Evaluation Type: Evaluation A (Pre-1980)) is “inactive; negative”.

For the compound `NC1(C(=O)O)CCCC1`, for the setting “Species/Cell Type: Escherichia coli polA (W3119 vs P3478), Assay Type: Rec-assay, DNA effects (bacterial DNA repair), Assay Code: RE1T, Evaluation Type: Evaluation A (Pre-1980)”, the mutagenic call is reported as “no conclusion”.

Consider `COc1ccc(N=NN(C)C)cc1`, for which the mutagenic call runs as follows: under setting [5], “active; positive”; under setting [1], “active; positive”. With `O=S=O`, the mutagenic call (Species/Cell Type: Human lymphocytes, Assay Type: Sister-chromatid exchange (SCE) in vivo, Assay Code: SCY+, Evaluation Type: Evaluation B (Post-1980)) is “active; positive”; the mutagenic call (Species/Cell Type: Tradescantia species, Assay Type: Chromosome aberrations, Assay Code: TRC+, Evaluation Type: Evaluation A (Pre-1980)) is “active; positive”; the mutagenic call (Species/Cell Type: Tradescantia species, Assay Type: Gene mutation, Assay Code: TRM+D, Dose Response: With dose response, Evaluation Type: Evaluation A (Pre-1980)) is “active; positive”. On to `O=NN(CCCl)C(=O)NCCCl`, for which the mutagenic call runs as follows: (Species/Cell Type: Chinese hamster lung (V79) cells, Assay Type: Forward gene mutation at the HPRT or ouabain locus, Assay Code: V79+, Evaluation Type: Evaluation A (Pre-1980)) “active; positive”; under setting [5], “active; positive”; (Species/Cell Type: Human lymphocytes, Assay Type: Sister-chromatid exchange (SCE) in vitro, Assay Code: SCL+, Evaluation Type: Evaluation B (Post-1980)) “active; positive”; (Species/Cell Type: Human, Assay Type: Sister-chromatid exchange (SCE) in vitro, Assay Code: SC1+D, Dose Response: With dose response, Evaluation Type: Evaluation B (Post-1980)) “active; positive”; (Species/Cell Type: Nonhuman, Assay Type: Sister-chromatid exchange (SCE) in vitro, Assay Code: SC2+D, Dose Response: With dose response, Evaluation Type: Evaluation B (Post-1980)) “active; positive”; (Species/Cell Type: Nonhuman, Assay Type: Sister-chromatid exchange (SCE) in vivo, Assay Code: SC3+D, Dose Response: With dose response, Evaluation Type: Evaluation B (Post-1980)) “active; positive”. Also, the mutagenic call by setting is: under setting [1], “active; positive”; under setting [2], “active; positive”. In addition, the call under setting [4] was “active; positive”. Consider `c1cc2ccc3ccc4ccc5cccc6c(c1)c2c3c4c56`, for which, under setting [7], the mutagenic call is “no conclusion”. Regarding `COc1cc2c[n+](C)c3c4cc5c(cc4ccc3c2cc1OC)OCO5`, the mutagenic call under setting [7] is listed as “no conclusion”.
